Columns and labels:
[1] = target: T1, HSA (Homo sapiens, UniProt P02768); experiment: Time course of complex-HSA interaction (UV-vis); type: binding; conditions: complex–HSA (1:1 or 2:1); pH 7.4
T1 construct: purchased Sigma-Aldrich (Darmstadt, Germany) A8763
Description: First, changes in the UV-vis spectra were followed in time in the complex—HSA (1:1 or 2:1) system, and it was concluded that the equilibrium can be reached within ca. 30 min for the RhCp* complex (Figure S25). […] The binding of the RuCym complex to HSA without the release of the bidentate ligand was also confirmed by CZE measurement (Figure S27). Most likely a donor atom of the protein binds at the coordination site of the co-ligand.
(§1) An Agilent Cary 8454 diode array spectrophotometer (Santa Clara, CA, USA) was used to obtain UV-vis spectra in the wavelength range 200–1000 nm, while spectra were recorded for the Fe(II)-containing samples using an Avantes (Avantes B.V., Apeldoorn, The Nederlands) AvaSpec-ULS2048CL-EVO spectrometer with an AvaLight-DHc light source and FDP-7UVIR200-2-VAR transmission dip probe. The titrations for the Fe(II)-containing samples were performed in a laboratory glove box (GP(Campus), Jacomex) (O2 content ≤ 1 ppm). The path length (ℓ) was 1 cm in most cases (the actual ℓ is always indicated in the legends of the figures). The concentrations of the ligands and complexes were between 40 and 200 µM, and 0.2 M KNO3 for the organometallic complexes or 0.1 M KCl for the Fe(II/III), Cu(II), and Zn(II) complexes were used to adjust the constant ionic strength. […]

[2] = target: T2, OATP2B1 (Homo sapiens, UniProt O94956); experiment: OATP uptake assay, OATP2B1; type: cell-based; conditions: human, 20 μM
T2 construct: expressed in transfected cells; host or cells: A431 epidermoid carcinoma cells
T2 sequence (O94956 1-709): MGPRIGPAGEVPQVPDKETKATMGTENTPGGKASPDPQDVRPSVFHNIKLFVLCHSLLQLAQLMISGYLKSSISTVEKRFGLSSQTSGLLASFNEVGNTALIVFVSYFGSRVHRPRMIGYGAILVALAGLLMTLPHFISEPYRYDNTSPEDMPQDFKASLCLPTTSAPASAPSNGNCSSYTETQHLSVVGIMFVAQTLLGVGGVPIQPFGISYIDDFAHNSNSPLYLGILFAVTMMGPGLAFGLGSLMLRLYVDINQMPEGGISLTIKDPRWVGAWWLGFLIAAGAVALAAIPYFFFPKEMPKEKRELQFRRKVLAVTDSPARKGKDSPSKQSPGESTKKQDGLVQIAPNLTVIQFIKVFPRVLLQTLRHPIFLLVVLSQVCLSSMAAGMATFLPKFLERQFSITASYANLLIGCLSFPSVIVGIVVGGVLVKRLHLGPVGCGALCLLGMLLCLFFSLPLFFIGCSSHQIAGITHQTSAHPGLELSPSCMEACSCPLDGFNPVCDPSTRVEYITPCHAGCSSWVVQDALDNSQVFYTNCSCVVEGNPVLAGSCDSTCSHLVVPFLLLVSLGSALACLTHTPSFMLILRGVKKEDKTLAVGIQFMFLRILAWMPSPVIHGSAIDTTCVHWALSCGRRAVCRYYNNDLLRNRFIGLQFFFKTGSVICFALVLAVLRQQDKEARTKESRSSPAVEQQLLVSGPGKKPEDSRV
Description: Cell lines: A431 cells overexpressing OATP1B1 or OATP2B1, and their mock transfected controls were generated and characterized previously. The cell lines were cultured in DMEM (Gibco, Thermofisher Scientific, Waltham, MA, USA), supplemented with 10% fetal bovine serum, 2 mM L-glutamine, 100 μg/mL streptomycin, and 100 units/mL penicillin at 37 °C and 5% CO2.
OATP uptake assay: Prior to the experiment, A431 cells (8 × 10^4/well) were seeded on 96-well plates in 200 μL cell culture medium. After 16–24 h, the cells were washed with 200 μL PBS, three times and pre-incubated with 20–200 μM HQNO2-L-Pro, or buffer without HQNO2-L-Pro for 5 min at 37 °C in 50 μL HBSS (Hank’s Balanced Salt Solution, pH 7.4; OATP1B1) or uptake buffer (pH 5.5; OATP2B1 [63]). The reaction was started by the addition of disulfopyrene (6,8-dihydroxy-1,3-pyrenedisulfonic acid disodium salt, Sigma, Darmstadt, Germany) at a final concentration of 10 μM (OATP1B1) or pyranine (8-hydroxypyrene-1,3-pyrenetrisulfonic acid trisodium salt, Sigma, Darmstadt, Germany) at a final concentration of 20 μM (OATP2B1), and the cells were further incubated at 37 °C for 10 min (OATP1B1) or 15 min (OATP2B1). The reaction was stopped by removing the supernatant after which the cells were washed three times with ice-cold PBS. Fluorescence (in 200 μL PBS) was determined using an Enspire plate reader (PerkinElmer, Waltham, MA, USA) with excitation/emission wavelengths of 460/510 nm. OATP-dependent transport was calculated by subtracting fluorescence measured in mock transfected cells. Transport activity was calculated based on the fluorescence signal in the absence (100%) of HQNO2-L-Pro. Experiments were repeated in at least three biological replicates.

[3] = Formation constants of Fe(III) complexes by UV-vis spectrophotometric titrations; type: physicochemical; conditions: I = 0.1 M KCl, 25.0 °C
Description: UV-vis titrations were performed to determine the formation (overall stability) constants (β) for the complexes of HQNO2-L-Pro formed with Fe(III) and Fe(II) ions (Figures S10 and S11). In the latter case, titrations were performed in a laboratory glove box. The calculations were complicated by the overlapping feature of the ligand bands and the charge transfer bands of the complexes. Based on the absorption spectra Figures S10a and S11a), formation of mono, bis, and tris complexes were found in both chemical systems; obtained constants are collected in Table 2. […] Based on the concentration distribution diagrams (see Figure S10b for Fe(III) and Figure S11b for Fe(II)), it can be concluded that the tris complexes are the dominant species at pH 7.4 in the case of Fe(III), while with Fe(II) both tris and bis-ligand species are formed under the conditions of the titrations.
as §1, with “strength. For HSA containing samples, complex concentrations were 50 µM, and 0.5, and 2 equiv. biomolecules were added for kinetic studies, respectively. For HSA model containing samples, complex concentrations were 50 µM, and the model concentrations were 0–150 µM and 0–500 µM, respectively, and the pH was 7.4 (PBS’). Spectra were always background and baseline corrected.” for “strength.”

T1 sequence (P02768 25-609): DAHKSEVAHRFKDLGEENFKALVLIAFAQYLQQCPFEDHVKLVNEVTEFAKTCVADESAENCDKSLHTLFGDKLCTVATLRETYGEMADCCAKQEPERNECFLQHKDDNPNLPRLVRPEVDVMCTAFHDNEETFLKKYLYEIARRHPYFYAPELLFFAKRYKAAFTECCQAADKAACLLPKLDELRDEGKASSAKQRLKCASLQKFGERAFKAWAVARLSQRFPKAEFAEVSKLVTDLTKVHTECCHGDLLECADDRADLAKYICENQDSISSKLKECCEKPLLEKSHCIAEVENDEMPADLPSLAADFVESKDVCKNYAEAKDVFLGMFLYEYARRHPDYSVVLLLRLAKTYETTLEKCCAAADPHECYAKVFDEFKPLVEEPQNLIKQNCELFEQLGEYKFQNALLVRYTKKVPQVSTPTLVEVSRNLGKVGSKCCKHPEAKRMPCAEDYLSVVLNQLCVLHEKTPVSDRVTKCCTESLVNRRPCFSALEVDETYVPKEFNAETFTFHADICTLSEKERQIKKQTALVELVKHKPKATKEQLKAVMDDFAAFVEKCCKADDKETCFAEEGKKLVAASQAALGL

Structure (SMILES)	time to reach equilibrium with HSA [1] [min]	activity at 15 min, 10 µM ([2]; A431 cells overexpressing OATP2B1, pH 5.5, probe pyranine, 10 μM, absence of compound = 100%, n = 3, ± SD, read-out: transport activity % OATP2B1) [%]	activity at 15 min, 100 µM ([2]; A431 cells overexpressing OATP2B1, pH 5.5, probe pyranine, 100 μM, absence of compound = 100%, n = 3, ± SD, read-out: transport activity % OATP2B1) [%]	inhibition at 15 min, 100 µM ([2]; probe pyranine, at 100 μM, A431 cells overexpressing OATP2B1, pH 5.5, read-out: inhibition of OATP2B1 function) [%]	logβ [M(HL)2] [3]	logβ [M(HL)3] [3]	logβ [M(HL)] [3]
CC1=C(C)[C](C)([Rh]([Cl])[O]c2c(C[NH+]3CCC[C@H]3C(=O)O)cc([N+](=O)[O-])c3cccnc23)C(C)=C1C.[Cl-] [RhCp*-HQNO2-L-Pro, [RhCp*(HQNO2-L-Pro)Cl]Cl]	≤ 30						
O=C(O)[C@@H]1CCCN1Cc1cc([N+](=O)[O-])c2cccnc2c1O [HQNO2-L-Pro, (2S)-1-((8-hydroxy-5-nitroquinolin-7-yl)methyl)pyrrolidin-1-ium-2-carboxylate]		98.2 ± 5.5	83.3 ± 9.7	< 20	38.76 ± 0.03	55.66 ± 0.03	19.75 ± 0.03
